Measurements: patent EP0561850B1, “7-SUBSTITUTED-6-FLUORO-1,4-DIHYDRO-4-OXO-QUINOLINE-3-CARBOXYLIC ACID COMPOUNDS USEFUL AS ANTIBACTERIAL AGENTS” (priority 1990, dated 1992)
Values after ≈ are worked out from the molar mass of the structure shown. Where two headings read alike, the source gives them in different places.

Key:
Test in all cases: Microbroth dilution (MHB) method, NCCLS M7-A2
[1] = test system: Sa 127M; format: cell-based, Staphylococcus aureus; conditions: inoculum 5 x 10^5 cfu/ml, 35 °C/18 hr
Protocol: (§1) The test organisms were obtained from ATCC and clinical laboratories. The 96-well microtitre plates containing […] of serially diluted test compounds in Mueller Hinton Broth (MHB) (conc. range 64-0.03 µg/ml) were inoculated with […] of bacterial suspension in MHB so that an inoculum size of 5 x 10^5 cfu/ml was achieved.
(§2) EC. (S- 63): Eschericia coli Ecl. (S- 130): Enterobacter cloacae Pa. (S- 67): Pseudomonas aeruginosa Kp. (S- 80): Klebsiella pneumoniae Pr.
(§3) Microbroth Dilution (MHB) method; Inoculum, 5 x 10^5 cfu/ml; Incubation 35 °C/18 hr

[2] = test system: Klebsiella pneumoniae S-80; format: cell-based; conditions: Kp S-80, MHB, inoculum 5 x 10^5 cfu/ml, 35 °C/18 hr
Protocol: as §1, §2, §3

[3] = test system: Providencia rettgeri S-121; format: cell-based; conditions: 35 °C/18 hr
Protocol: as §1, §2, §3

[4] = test system: Staphylococcus aureus S-127; format: cell-based; conditions: 35 °C/18 hr
Protocol: as §1, §2, §3

[5] = test system: Pseudomonas aeruginosa S-67; format: cell-based; conditions: Pa S-67, MHB, inoculum 5 x 10^5 cfu/ml, 35 °C/18 hr
Protocol: as §1, §2, §3

[6] = test system: Eschericia coli S-63; format: cell-based; conditions: Ec S-63, inoculum 5 x 10^5 cfu/ml, 35 °C/18 hr
Protocol: as §1, §2, §3

[7] = test system: Enterobacter cloacae S-130; format: cell-based; conditions: 35 °C/18 hr
Protocol: as §1, §2, §3

[8] = Staphylococcus aureus, read-out: MIC
[9] = Klebsiella pneumoniae, S80, read-out: MIC
[10] = Providencia rettgeri, S121, Pr S-121, inoculum 5 x 10^5 cfu/ml, read-out: MIC
[11] = Staphylococcus aureus, S127, Sa S-127, inoculum 5 x 10^5 cfu/ml, read-out: MIC
[12] = Pseudomonas aeruginosa, S67, read-out: MIC
[13] = Enterobacter cloacae, S130, Ecl S-130, inoculum 5 x 10^5 cfu/ml, read-out: MIC

MIC [1, 8] [µg/mL] | MIC [2, 9] [µg/mL] | MIC [3, 10] [µg/mL] | MIC [4, 11] [µg/mL] | MIC [5, 12] [µg/mL] | MIC ([6]; read-out: MIC) [µg/mL] | MIC [7, 13] [µg/mL] | Compound | MIC [1] [µg/mL] | MIC [2] | MIC ([3]; Pr S-121, inoculum 5 x 10^5 cfu/ml) | MIC ([4]; Sa S-127, inoculum 5 x 10^5 cfu/ml) [µg/mL] | MIC [5] [µg/mL] | MIC [6] | MIC ([7]; Ecl S-130, inoculum 5 x 10^5 cfu/ml)
 | 0.25 (≈ 0.621 µM) | 0.12 (≈ 0.298 µM) | 0.06 (≈ 0.149 µM) | 2 (≈ 4.97 µM) | 0.06 (≈ 0.149 µM) |  | O=C(O)c1cn(C2CC2)c2c(F)c(N3CCC(n4cnnn4)C3)c(F)cc2c1=O (stereo not shown) [Example 52, 1-Cyclopropyl-6,8-fluoro-7-[3-(1,2,3,4-tetrazol-1-yl)pyrrolidin-1-yl]-1,4-dihydro-4-oxo-quinoline-3-carboxylic acid] |  |  |  |  |  |  | 
0.06 (≈ 0.149 µM) | 0.5 (≈ 1.25 µM) | 0.25 (≈ 0.623 µM) | 0.03 (≈ 0.0747 µM) | 4 (≈ 9.97 µM) | 0.12 (≈ 0.299 µM) | 0.25 (≈ 0.623 µM) | O=C(O)c1cn(C2CC2)c2c(F)c(N3CCC(n4cncn4)C3)c(F)cc2c1=O (stereo not shown) [Example 29, 1-Cyclopropyl-6,8-difluoro-7-[3-(1,2,4-triazol-1-yl)pyrrolidin-1-yl]-1,4-dihydro-4-oxo-quinoline-3-carboxylic acid] |  |  |  |  |  |  | 
1 (≈ 2.25 µM) |  |  |  |  | 0.25 (≈ 0.561 µM) |  | O=C(O)c1cn(C2CCN(c3c(F)cc4c(=O)c(C(=O)O)cn(C5CC5)c4c3F)C2)nn1 (stereo not shown) [Example 45, 1-cyclopropyl-6,8-difluoro-7-[3-(4-carboxyl-1,2,3-triazol-1-yl)pyrrolidin-1-yl]-1,4-dihydro-4-oxo-quinoline-3-carboxylic acid] |  |  |  |  |  |  | 
≤ 0.03 | 0.12 (≈ 0.298 µM) | 0.12 (≈ 0.298 µM) | ≤ 0.03 | 2 (≈ 4.97 µM) | 0.06 (≈ 0.149 µM) |  | O=C(O)c1cn(C2CC2)c2c(F)c(N3CCC(n4ncnn4)C3)c(F)cc2c1=O (stereo not shown) [Example 51, 1-Cyclopropyl-6,8-difluoro-7-[3-(1,2,3,4-tetrazol-2-yl)pyrrolidin-1-yl]-1,4-dihydro-4-oxo-quinoline-3-carboxylic acid] |  |  |  |  |  |  | 

Continued, compound first:

Compound | MIC [1, 8] [µg/mL] | MIC [2, 9] [µg/mL] | MIC [3, 10] [µg/mL] | MIC [4, 11] [µg/mL] | MIC [5, 12] [µg/mL] | MIC ([6]; read-out: MIC) [µg/mL] | MIC [7, 13] [µg/mL] | MIC [1] [µg/mL] | MIC [2] | MIC ([3]; Pr S-121, inoculum 5 x 10^5 cfu/ml) | MIC ([4]; Sa S-127, inoculum 5 x 10^5 cfu/ml) [µg/mL] | MIC [5] [µg/mL] | MIC [6] | MIC ([7]; Ecl S-130, inoculum 5 x 10^5 cfu/ml)
Norfloxacin - choline salt [MFLX-, reference compound] |  |  |  |  |  |  |  | 16 | .25 µg/mL | .12 µg/mL | 2 | 1 | .06 µg/mL | .25 µg/mL
COc1c(N2CC[C@H](n3ccnn3)C2)c(F)cc2c(=O)c(C(=O)O)cn(C3CC3)c12 [Example 31, 1-Cyclopropyl-6-fluoro-7-[3S-(1,2,3-triazol-1-yl)pyrrolidin-1-yl]-8-methoxy-1,4-dihydro-4-oxo-quinoline-3-carboxylic acid] | ≤ 0.015 | 0.25 (≈ 0.605 µM) | 0.5 (≈ 1.21 µM) | ≤ 0.015 | 2 (≈ 4.84 µM) | 0.12 (≈ 0.29 µM) | 0.5 (≈ 1.21 µM) |  |  |  |  |  |  | 
C[C@H]1COc2c(N3CCC(n4ccnn4)C3)c(F)cc3c(=O)c(C(=O)O)cn1c23 (single isomer, unassigned; (-)) [Example 38] | 0.5 (≈ 1.25 µM) | 1 (≈ 2.5 µM) | 1 (≈ 2.5 µM) | 0.12 (≈ 0.3 µM) | 8 (≈ 20 µM) | 0.25 (≈ 0.626 µM) | 1 (≈ 2.5 µM) |  |  |  |  |  |  | 
Cc1nnn(C2CCN(c3c(F)cc4c(=O)c(C(=O)O)cn(C5CC5)c4c3F)C2)c1C (stereo not shown) [Example 26, 1-Cyclopropyl-6,8-difluoro-7[3-(4,5-dimethyl-1,2,3-triazol-1-yl)pyrrolidin-1-yl]-1,4-dihydro-4-oxo-quinoline-3-carboxylic acid] | 0.06 (≈ 0.14 µM) | 1 (≈ 2.33 µM) | 1 (≈ 2.33 µM) | 0.03 (≈ 0.0699 µM) | 8 (≈ 18.6 µM) | 0.25 (≈ 0.582 µM) | 2 (≈ 4.66 µM) |  |  |  |  |  |  | 
COc1c(N2CCC(n3cncn3)C2)c(F)cc2c(=O)c(C(=O)O)cn(C3CC3)c12 (stereo not shown) [Example 34, 1-Cyclopropyl-6-fluoro-7-[3-(1,2,4-triazol-1-yl)pyrrolidin-1-yl]-8-methoxy-1,4-dihydro-4-oxo-quinoline-3-carboxylic acid] |  | 0.5 (≈ 1.21 µM) | 0.5 (≈ 1.21 µM) | 0.5 (≈ 1.21 µM) | 8 (≈ 19.4 µM) | 0.5 (≈ 1.21 µM) | 0.5 (≈ 1.21 µM) |  |  |  |  |  |  | 
Nc1c(F)c(N2CCC(n3cc(-c4ccccc4)nn3)C2)c(F)c2c1c(=O)c(C(=O)O)cn2C1CC1 (stereo not shown) [Example 47, 5-amino-1-cyclopropyl-6,8-difluoro-7-[3-(4-phenyl-1,2,3-triazol-1-yl)-pyrrolidin-1-yl]-1,4-dihydro-4-oxo-quinoline-3-carboxylic acid] | 0.015 (≈ 0.0305 µM) | 0.5 (≈ 1.02 µM) | 0.015 (≈ 0.0305 µM) | 0.015 (≈ 0.0305 µM) | > 32 | 0.25 (≈ 0.508 µM) | 16 (≈ 32.5 µM) |  |  |  |  |  |  | 
